Measurements from US9012493B2, “1-heterodiene derivative and pest control agent” (Nippon Soda Co., Ltd., priority 2009, dated 2015).

What was measured:
Type in all cases: in vivo
[1] = test system: Sweetpotato Whitefly (Bemisia Tabaci); assay: Efficacy test against sweetpotato whitefly, sprayed tomato leaf; details: 125 ppm, emulsifiable concentrate diluted with water, adults (type B), after 2 days, 25° C.
Outline: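 Cut tomato leaves were sprayed with an emulsifiable concentrate diluted to 125 ppm compound, air-dried, then infested with seven pairs of type B adults. Leaves were held at 25 °C and 65% humidity, and mortality was counted after 2 days as dead/released × 100. The test was run twice.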

[2] = test system: Cotton Aphid (Aphis Gossypii); assay: Efficacy test against cotton aphid, spray on cucumber plant; details: 125 ppm, emulsifiable concentrate diluted with water, sprayed over cucumber plant with nymphs, after 5 days, 25° C.
Outline: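 Cucumber plants (~10 days after sprouting) carrying nymphs deposited by cotton aphid adults over 1 day were sprayed with emulsifiable concentrate diluted to 125 ppm compound. Plants were kept at 25 °C and 65% humidity. Mortality after 5 days gave the insecticidal rate (dead/released ×100), from two replicates.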

[3] = test system: Rice Armyworm (Mythimna Separata); assay: Efficacy test against rice armyworm, corn leaf dip; details: 125 ppm, emulsifiable concentrate diluted with water, corn leaves immersed, second instar larvae, after 5 days, 25° C.
Outline: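 Corn leaves dipped 30 s in compound diluted to 125 ppm from an emulsifiable concentrate, air-dried, then offered to five second-instar larvae. Held at 25° C and 65% humidity; mortality scored after 5 days as dead/released ×100. Run in duplicate.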

[4] = test system: Twospotted Spider Mite (Tetranychus Urticae Koch); assay: Efficacy test against twospotted spider mite, spray on kidney bean plant; details: 125 ppm, wettable powder diluted with water, sprayed, female adults with resistance to an organophosphorus agent on kidney bean, after 3 days
Description: The wettable powder obtained according to Formulation of Formulation Example 1 was diluted with water so as to control the concentration of the compound to 125 ppm. Seventeen female adults of twospotted spider mite with resistance to an organophosphorus agent were inoculated on a first true leaf of a kidney bean plant (approximately 7 to 10 days after sprouting) sown in a 3 sun/size pot (9 cm). The diluted solution was sprayed. The pot was placed in a temperature-controlled room at a temperature of 25° C. and a humidity of 65%. After 3 days, the adulticidal rate was examined. The test was repeated twice.

C=C1SC(=Nc2cccc(C(F)(F)F)c2)C(=CSc2ccccc2)CC1(C)C [Compound 2-36]
100%: insecticidal rate [1] | insecticidal rate [2] | insecticidal rate [3] | adulticidal rate [4]

C=C1SC(=Nc2ccc(OC)cc2C)C(=CSc2ccccc2)CC1(C)C [Compound 2-40]
100%: insecticidal rate [1] | insecticidal rate [2] | insecticidal rate [3] | adulticidal rate [4]

C=C1SC(=Nc2ccc(OC)cc2C)C(=CSc2ccc(F)cc2)CC1(C)C [Compound 2-41]
100%: insecticidal rate [1] | insecticidal rate [2] | insecticidal rate [3] | adulticidal rate [4]

C=C1SC(=Nc2ccc(OC)cc2)C(=CSc2ccc(F)cc2)CC1(C)C [Compound 2-46]
100%: insecticidal rate [1] | insecticidal rate [2] | insecticidal rate [3] | adulticidal rate [4]

C=C1SC(=Nc2ccc(C)cc2)C(=CSc2ccc(F)cc2)CC1(C)C [Compound 2-48]
100%: insecticidal rate [1] | insecticidal rate [2] | insecticidal rate [3] | adulticidal rate [4]

C=C1SC(=Nc2ccc(OC)cc2)C(=CSc2ccccc2OC)CC1(C)C [Compound 2-49]
100%: insecticidal rate [1] | insecticidal rate [2] | insecticidal rate [3] | adulticidal rate [4]

C=C1SC(=Nc2ccc(C)cc2)C(=CSc2ccccc2)CC12CCOCC2 [Compound 2-56]
100%: insecticidal rate [1] | insecticidal rate [2] | insecticidal rate [3] | adulticidal rate [4]

C=C1SC(=Nc2ccc(C)cc2C)C(=CSc2ccccc2)CC1(C)C [Compound 2-64]
100%: insecticidal rate [1] | insecticidal rate [2] | insecticidal rate [3] | adulticidal rate [4]

C=C1SC(=Nc2ccc(C)cc2)C(=CSc2ccccc2)CC1CC (stereo not shown) [Compound 2-68]
100%: insecticidal rate [1] | insecticidal rate [2] | insecticidal rate [3] | adulticidal rate [4]

C=C1SC(=Nc2ccc(OC)cc2)C(=CSc2ccc(C#N)cc2)CC1(C)C [Compound 2-70]
100%: insecticidal rate [1] | insecticidal rate [2] | insecticidal rate [3] | adulticidal rate [4]

C=C1SC(=Nc2ccc(C)cc2)C(=CSc2cccs2)CC1(C)C [Compound 2-71]
100%: insecticidal rate [1] | insecticidal rate [2] | insecticidal rate [3] | adulticidal rate [4]

C=C1SC(=Nc2ccc(C)cc2)C(=CSc2ccc(C#N)cc2)CC1(C)C [Compound 2-72]
100%: insecticidal rate [1] | insecticidal rate [2] | insecticidal rate [3] | adulticidal rate [4]

C=C1SC(=Nc2ccc(C)cc2)C(=CSc2ccccc2)CC1CCC (stereo not shown) [Compound 2-75]
100%: insecticidal rate [1] | insecticidal rate [2] | insecticidal rate [3] | adulticidal rate [4]

C=C1SC(=Nc2ccc(C)cc2)C(=CSc2ccccc2)CC1C (stereo not shown) [Compound 2-76]
100%: insecticidal rate [1] | insecticidal rate [2] | insecticidal rate [3] | adulticidal rate [4]

C=C1SC(=Nc2ccc(C)cc2)C(=CSc2cccs2)CC1C (stereo not shown) [Compound 2-77]
100%: insecticidal rate [1] | insecticidal rate [2] | insecticidal rate [3] | adulticidal rate [4]

C=C1SC(=Nc2ccc(C)cc2)C(=CSc2ccsc2)CC1(C)C [Compound 2-78]
100%: insecticidal rate [1] | insecticidal rate [2] | insecticidal rate [3] | adulticidal rate [4]

C=C1SC(=Nc2ccc(C)cc2)C(=CSc2ccc(C)s2)CC1(C)C [Compound 2-79]
100%: insecticidal rate [1] | insecticidal rate [2] | insecticidal rate [3] | adulticidal rate [4]

C=C1SC(=Nc2ccc(C)cc2)C(=CSc2ccc(OC)s2)CC1(C)C [Compound 2-80]
100%: insecticidal rate [1] | insecticidal rate [2] | insecticidal rate [3] | adulticidal rate [4]

C=C1SC(=Nc2ccc(OC)cc2)C(=CSc2ccsc2)CC1(C)C [Compound 2-81]
100%: insecticidal rate [1] | insecticidal rate [2] | insecticidal rate [3] | adulticidal rate [4]

C=C1SC(=Nc2ccc(OC)cc2)C(=CSc2ccc(C)s2)CC1(C)C [Compound 2-83]
100%: insecticidal rate [1] | insecticidal rate [2] | insecticidal rate [3] | adulticidal rate [4]

C=C1SC(=Nc2ccc(C)cc2)C(=CSc2ccc(C(F)(F)F)cc2)CC1(C)C [Compound 2-90]
100%: insecticidal rate [1] | insecticidal rate [2] | insecticidal rate [3] | adulticidal rate [4]

C=C1SC(=Nc2ccc(C)cc2)C(=CSc2nc3ccccc3s2)CC1(C)C [Compound 2-94]
100%: insecticidal rate [1] | insecticidal rate [2] | insecticidal rate [3] | adulticidal rate [4]

C=C1SC(=Nc2ccc(C)cc2)C(=CSc2cccc(C(F)(F)F)c2)CC1(C)C [Compound 2-99]
100%: insecticidal rate [1] | insecticidal rate [2] | insecticidal rate [3] | adulticidal rate [4]

C=C1SC(=Nc2ccc(C)cc2)C(=CSc2ccccc2C(F)(F)F)CC1(C)C [Compound 2-100]
100%: insecticidal rate [1] | insecticidal rate [2] | insecticidal rate [3] | adulticidal rate [4]

C=C1SC(=Nc2ccc(OC)cc2)C(=CSc2ccc([Si](C)(C)C)s2)CC1(C)C [Compound 2-103]
100%: insecticidal rate [1] | insecticidal rate [2] | insecticidal rate [3] | adulticidal rate [4]

C=C1SC(=Nc2ccc(C)cc2)C(=CSc2cccc(C)c2)CC1(C)C [Compound 2-110]
100%: insecticidal rate [1] | insecticidal rate [2] | insecticidal rate [3] | adulticidal rate [4]

C=C1SC(=Nc2ccc(OC)cc2)C(=CSc2ccc(Br)s2)CC1(C)C [Compound 2-117]
100%: insecticidal rate [1] | insecticidal rate [2] | insecticidal rate [3] | adulticidal rate [4]

C=C1SC(=Nc2ccc(C)cc2)C(=CSc2ccc(F)cc2F)CC1(C)C [Compound 2-124]
100%: insecticidal rate [1] | insecticidal rate [2] | insecticidal rate [3] | adulticidal rate [4]

C=C1SC(=Nc2ccc(C)c(C)c2)C(=CSc2ccccc2)CC1(C)C [Compound 2-148]
100%: insecticidal rate [1] | insecticidal rate [2] | insecticidal rate [3] | adulticidal rate [4]

C=C1SC(=Nc2ccc(C)c(C)c2)C(=CSc2cccs2)CC1(C)C [Compound 2-149]
100%: insecticidal rate [1] | insecticidal rate [2] | insecticidal rate [3] | adulticidal rate [4]

C=C1SC(=Nc2ccc(C)c(C)c2)C(=CSc2ccc(F)cc2)CC1(C)C [Compound 2-150]
100%: insecticidal rate [1] | insecticidal rate [2] | insecticidal rate [3] | adulticidal rate [4]
